These results are taken from patent US20100061994A1, “MEDICAL USES OF 39-DESMETHOXYRAPAMYCIN AND ANALOGUES THEREOF” (priority 2005, published 2010).

Where “and” joins values, the source holds several entries; their conditions need not be identical. Equal entries are not always repeated. Where two headings read alike, the source gives them in different places.

One data set relates to EAE. Briefly: Experimental allergic encephalomyelitis (EAE) model of multiple sclerosis. Type of data set: in vivo, male Lewis rats. The following applies: rat, in vivo.
A short description of data set [1]: Human Liver Microsomal (HLM) stability assay. It counts as in vitro ADME. The settings on record: 0.001 mM, 0.25 mg/mL protein, NADPH, 37° C. The procedure:
Liver homogenates provide a measure of a compounds inherent vulnerability to Phase I (oxidative) enzymes, including CYP450s (e.g. CYP2C8, CYP2D6, CYP1A, CYP3A4, CYP2E1), esterases, amidases and flavin monooxygenases (FMOs).
The half life (T½) of test compounds was determined, on exposure to Human Liver Microsomes, by monitoring their disappearance over time by LC-MS. Compounds at 0.001 mM were incubated at for 40 min at 37° C., 0.1 M Tris-HCl, pH 7.4 with human microsomal sub-cellular fraction of liver at 0.25 mg/mL protein and saturating levels of NADPH as co-factor. At timed intervals, acetonitrile was added to test samples to precipitate protein and stop metabolism. Samples were centrifuged and analysed for parent compound using analytical Method A (see Materials & Methods).
Background: Microsomes from liver hold many membrane-bound enzymes, among them those of drug oxidation.

In a further data set the target is FKBP12 (Homo sapiens, UniProt P62942). Kind of data set: In vitro FKBP12 binding assay (GdnHCl unfolding). An excerpt: FKBP12 reversibly unfolds in the chemical denaturant guandinium hydrochloride (GdnHCl) and the unfolding can be monitored by the change in the intrinsic fluorescence of the protein (Main et al, 1998). Ligands which specifically bind and stabilise the native state of FKBP12 shift the denaturation curve such that the protein unfolds at higher concentrations of chemical denaturant (Main et al, 1999). From the difference in stability, the ligand-binding constant can be determined using equation 1.
Sequence of FKBP12 (P62942 whole entry, species assumed): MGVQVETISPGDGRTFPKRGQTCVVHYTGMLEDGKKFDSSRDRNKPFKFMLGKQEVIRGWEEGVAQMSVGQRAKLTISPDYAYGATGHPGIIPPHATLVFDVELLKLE
where ΔGapp is the apparent difference in free energy of unfolding between free and ligand-bound forms, ΔGD−N^H^2^O is the free energy of unfolding in water of free protein, [L] the concentration of ligand and kd the dissociation constant for the protein-ligand complex (Meiering et al, 1992). The free energy of unfolding can be related to the midpoint of the unfolding transition using the following equation: […]
where mD−N is a constant for a given protein and given denaturant and which is proportional to the change in degree of exposure of residues on unfolding (Tanford 1968 and Tanford 1970), and [D]50% is the concentration of denaturant corresponding to the midpoint of unfolding.
where <mD−N> is the average m-value of the unfolding transition and Δ[D]50% the difference in midpoints for the rapamycin-FKBP12 unfolding transition and unknown-ligand-FKBP12 complex unfolding transition. Under conditions where [L]>Kd, then, ΔΔGD−N, can be related to the relative Kds of the two compounds through equation 4: […]

The next data set is described as follows: Caco-2 permeation assay. The settings on record: human, Caco-2, pH 7.4.
Data set [2] in a line: Pharmacokinetic analysis Protocol 1 (blood and brain). The following applies: female, CD1, mouse, 3 mg/kg.
Procedure: The test compounds were prepared in a vehicle consisting of 4% Ethanol, 5% Tween-20, 5% polyethyleneglycol 400 in 0.15M NaCl. A single dbse of 10 mg/kg p.o. or 3 mg/kg i.v. was administered to groups of female CD1 mice (3 mice for each compound per time point). At 0 min, 4 min, 15 min, 1 h, 4 h, and 24 h groups were sacrificed and the blood and the brain were collected from each mouse for further analysis.
The brain samples were snap frozen in liquid nitrogen and stored at −20° C. A minimum of 0.2 mL of whole blood from each animal was collected in tubes containing ethylene diamine tetra-acetic acid (EDTA) as anticoagulant, thoroughly mixed, and stored at −20° C.
Analysis was performed by ASI Limited, (St George's Hospital Medical School, London). The concentration of the test compound in the blood and brain samples supplied was determined by HPLC with MS detection. Control, test compound free, blood samples were obtained from Harlan Sera-Lab Limited, (Loughborough, England). Time zero brain samples were supplied as control, test compound free, brain samples.
One hemisphere of each brain was homogenized with 5 mL water.
The control or test sample of mouse brain or blood (0.05 mL), internal standard solution (0.1 mL), 5% Zinc sulphate solution (0.5 mL), and acetone (0.5 mL) were pipetted into a 2 mL polypropylene tube (Sarstedt Limited, Beaumont Leys, Leicester, UK) and the contents were then mixed for a minimum of 5 minutes (IKA-Vibrax-VXR mixer, Merck (BDH) Limited, Poole Dorset, UK). The tubes were then centrifuged in a microfuge for a minimum of 2 minutes. The solvent layer was decanted into a 4.5 mL polypropylene tube containing sodium hydroxide (0.1M, 0.1 mL) and methyl-tert-butyl ether (MTBE, 2 mL). The tube was then mixed for a minimum of 5 minutes (IKA-Vibrax-VXR mixer) and then centrifuged at 3500 rpm for 5 minutes. The solvent layer was transferred to a 4.5 mL conical polypropylene tube, placed in a SpeedVac® and evaporated to dryness.
The dried extracts were reconstituted with 0.15 mL 80% methanol and mixed for a minimum of 5 minutes (IKA-Vibrax-VXR mixer) and centrifuged at 3500 rpm for 5 minutes. The extract was transferred to auto sampler tubes (NLG Analytical, Adelphi Mill, Bollington, Cheshire, UK) and placed into the auto-sampler tray which was set at ambient temperature. The auto-sampler was programmed to inject a 0.03 mL aliquot of each extract onto the analytical column.
The AUC for each compound in blood or in brain tissue was calculated using Kinetica 4.4 (InnaPhase Corporation), using a non-compartmental model and the trapezoidal method for AUC calculation.
The partition coefficient (Ri) for each compound after p.o. and i.v. administration was calculated as shown below:
The partition coefficient (R) for each compound after i.v. administration was calculated as shown below:
The subject of a further data set is Caco-2 cells. Briefly: Caco-2 permeation assay. The settings on record: 0.01 mM. (Caco-2 cells form a polarised layer with tight junctions and transporters.)
Where [3] appears, read: relative to literature Kd of rapamycin 0.2 nM.

Procedure for Caco-2 cells: Confluent Caco-2 cells (Li, A. P., 1992; Grass, G. M., et al., 1992, Volpe, D. A., et al., 2001) in a 24 well Corning Costar Transwell format were provided by In Vitro Technologies Inc. (IVT Inc., Baltimore, Md., USA). The apical chamber contained 0.15 mL Hank's balanced buffer solution (HBBS) pH 7.4, 1% DMSO, 0.1 mM Lucifer Yellow. The basal chamber contained 0.6 mL HBBS pH 7.4, 1% DMSO. Controls and tests were incubated at 37° C. in a humidified incubator, shaken at 130 rpm for 1 h. Lucifer Yellow permeates via the paracellular (between the tight junctions) route only, a high Apparent Permeability (Papp) for Lucifer Yellow indicates cellular damage during assay and all such wells were rejected. […] Compounds were tested in a uni- and bi-directional format by applying compound to the apical or basal chamber (at 0.01 mM). Compounds in the apical or basal chambers were analysed by HPLC-MS (Method A, see Materials & Methods). Results were expressed as Apparent Permeability, Papp, (nm/s) and as the Flux Ratio (A to B versus B to A).
[formula] • Volume Acceptor: 0.6 ml (A>B) and 0.15 ml (B>A) • Area of monolayer: 0.33 cm2 • Δtime: 60 min
A positive value for the Flux Ratio indicates active efflux from the apical surface of the cells.

Consider `O=P1(N(CCCl)CCCl)NCCCO1` (centres unmarked) [Cyclophosphamide, reference compound], for which, in the data set on EAE, the “Cumulative score Mean ± St Dev.” value is 33 ± 14.1 and 37 ± 26.6; the “Duration (days) Mean ± St Dev.” value was 13 ± 3.4 days and 15 ± 3.2 days; the “Onset Mean ± St Dev.” value is 13 ± 2.6 and 11 ± 1.1.
For the compound `CO[C@H]1CC2CC[C@@H](C)[C@@](O)(O2)C(=O)C(=O)N2CCCC[C@H]2C(=O)O[C@H]([C@@H](C)CC2CCC(O)CC2)CC(=O)[C@@H](C)/C=C(\C)[C@H](O)[C@H](O)C(=O)[C@@H](C)C[C@H](C)/C=C/C=C/C=C/1C` (some centres unmarked) [27-O-desmethyl-39-desmethoxyrapamycin], the half-life at 0.001 mM in data set [1] (human, liver microsomes, pH 7.4, read-out: HLM stability: T½ min) turned out to be 27 min. In addition, on FKBP12 (setting [3]), the Kd (commonly the equilibrium constant for the complex coming apart) stood at 0.0008 µM. In the data set “Caco-2 permeation assay”, the Papp (usually the rate of passage across a membrane or cell layer, normalised by area and donor concentration) at 1 h, 0.01 mM amounted to 4 nm/s; the efflux ratio (as a rule, a quotient of directional permeabilities that is used to spot active efflux) at 1 h, 0.01 mM came out at 91. In addition, in data set [2] (brain / whole blood, intravenous), the Kp (usually tissue or fluid exposure divided by exposure in the circulation) was determined as 4.56. Moreover, the AUC (as a rule, concentration integrated over time) in data set [2] (whole blood, iv) worked out at 1.85 µg·h/mL.
Turning to “16-O-desmethyl-27-O-desmethyl-39-desmethoxyrapamycin”, the “HLM stability: T½ min” value in data set [1] stood at 47 min. The compound also displayed a Kd at FKBP12 (setting [3]) of 0.101 µM. Moreover, the “Caco-2: Efflux Ratio” value in the data set with Caco-2 cells (bi-directional format) was determined as 37. For the same compound, in the data set on Caco-2 cells (pH 7.4, 1 h), the “Caco-2: Papp” value is 13 nm/s.
Compound `COC1CC2CCC(C)C(O)(O2)C(=O)C(=O)N2CCCCC2C(=O)OC(C(C)CC2CCC(O)CC2)CC(=O)C(C)C=C(C)C(O)CC(=O)C(C)CC(C)C=CC=CC=C1C` (centres unmarked) [27-desmethoxy-39-desmethoxy rapamycin] showed a Kd on FKBP12 of 0.16 µM.
